Here are results for 19 molecules from ChEMBL document CHEMBL4007501, “Synthesis and antitumor evaluation of 2,3-diarylbenzofuran derivatives on HeLa cells” (Bioorg Med Chem Lett, 2017).

Assay [1] concerns HeLa. The assay can be described thus: Cytotoxicity against human HeLa cells assessed as decrease in cell viability after 48 hrs by MTT assay. It is filed as functional, cell-based.
In assay [2] the test system is HeLa. The assay can be described thus: Cytotoxicity against human HeLa cells assessed as decrease in cell viability at 10 uM after 48 hrs by MTT assay relative to control. Format: functional. (Tetrazolium assays rely on reduction of a dye to a coloured formazan, in cell work by metabolically active cells.)
The subject of assay [3] is HeLa. The experiment in a line: Cytotoxicity against human HeLa cells assessed as decrease in cell viability at 20 uM after 48 hrs by MTT assay relative to control. Format: functional.
The test system of assay [4] is HeLa. The experiment in a line: Cell cycle arrest in human HeLa cells assessed as accumulation at G1 phase at 10 uM after 48 hrs by propidium iodide staining-based flow cytometric analysis (reference value: 66.35%). Format: functional. (Flow cytometry measures light scatter and fluorescence of single cells or particles in a stream.)
For assay [5], the system named is HeLa. The assay can be described thus: Cell cycle arrest in human HeLa cells assessed as accumulation at G2 phase at 10 uM after 48 hrs by propidium iodide staining-based flow cytometric analysis (reference value: 4.45%). Format: functional.
Assay [6] deals with HeLa. The experiment in a line: Cell cycle arrest in human HeLa cells assessed as accumulation at S phase at 10 uM after 48 hrs by propidium iodide staining-based flow cytometric analysis (reference value: 29.20%). It is filed as functional.
Assay [7] relates to HeLa. The experiment in a line: Cell cycle arrest in human HeLa cells assessed as accumulation at G1 phase at 20 uM after 48 hrs by propidium iodide staining-based flow cytometric analysis (reference value: 66.35%). It is filed as functional.
For assay [8], the system named is HeLa. The assay can be described thus: Cell cycle arrest in human HeLa cells assessed as accumulation at G2 phase at 20 uM after 48 hrs by propidium iodide staining-based flow cytometric analysis (reference value: 4.45%). It is filed as functional.
Assay [9] concerns HeLa. The experiment in a line: Cell cycle arrest in human HeLa cells assessed as accumulation at S phase at 20 uM after 48 hrs by propidium iodide staining-based flow cytometric analysis (reference value: 29.20%). It is filed as functional.
Assay [10] deals with HeLa. The experiment in a line: Cell cycle arrest in human HeLa cells assessed as accumulation at G1 phase at 30 uM after 48 hrs by propidium iodide staining-based flow cytometric analysis (reference value: 66.35%). It is filed as functional.
Assay [11] relates to HeLa. The experiment in a line: Induction of apoptosis in human HeLa cells assessed as early apoptotic cells at 10 uM after 24 hrs by annexin V/FITC-propidium iodide staining-based flow cytometric method (reference value: 1.76%). It is filed as functional.
In assay [12] the test system is HeLa. The assay can be described thus: Induction of apoptosis in human HeLa cells assessed as late apoptotic cells at 10 uM after 24 hrs by annexin V/FITC-propidium iodide staining-based flow cytometric method (reference value: 0.987%). Format: functional.
In assay [13] the test system is HeLa. The assay can be described thus: Induction of apoptosis in human HeLa cells assessed as necrotic cells at 10 uM after 24 hrs by annexin V/FITC-propidium iodide staining-based flow cytometric method (reference value: 1.81%). It is filed as functional.
Assay [14] concerns HeLa. The experiment in a line: Induction of apoptosis in human HeLa cells assessed as viable cells at 10 uM after 24 hrs by annexin V/FITC-propidium iodide staining-based flow cytometric method (reference value: 95.4%). It is filed as functional. The note with it: read-out: Activity.
The test system of assay [15] is HeLa. The experiment in a line: Induction of apoptosis in human HeLa cells assessed as early apoptotic cells at 20 uM after 24 hrs by annexin V/FITC-propidium iodide staining-based flow cytometric method (reference value: 1.76%). It is filed as functional.
For assay [16], the system named is HeLa. The assay can be described thus: Induction of apoptosis in human HeLa cells assessed as late apoptotic cells at 20 uM after 24 hrs by annexin V/FITC-propidium iodide staining-based flow cytometric method (reference value: 0.987%). Format: functional.
For assay [17], the system named is HeLa. The experiment in a line: Induction of apoptosis in human HeLa cells assessed as necrotic cells at 20 uM after 24 hrs by annexin V/FITC-propidium iodide staining-based flow cytometric method (reference value: 1.81%). It is filed as functional.
The subject of assay [18] is HeLa. The assay can be described thus: Induction of apoptosis in human HeLa cells assessed as viable cells at 20 uM after 24 hrs by annexin V/FITC-propidium iodide staining-based flow cytometric method (reference value: 95.4%). It is filed as functional. The note with it: read-out: Activity.
Assay [19] has as its system HeLa. The experiment in a line: Induction of apoptosis in human HeLa cells assessed as early apoptotic cells at 30 uM after 24 hrs by annexin V/FITC-propidium iodide staining-based flow cytometric method (reference value: 1.76%). It is filed as functional.
In assay [20] the test system is HeLa. The experiment in a line: Induction of apoptosis in human HeLa cells assessed as late apoptotic cells at 30 uM after 24 hrs by annexin V/FITC-propidium iodide staining-based flow cytometric method (reference value: 0.987%). It is filed as functional.
Assay [21] relates to HeLa. The experiment in a line: Induction of apoptosis in human HeLa cells assessed as necrotic cells at 30 uM after 24 hrs by annexin V/FITC-propidium iodide staining-based flow cytometric method (reference value: 1.81%). It is filed as functional.
For assay [22], the system named is HeLa. The experiment in a line: Induction of apoptosis in human HeLa cells assessed as viable cells at 30 uM after 24 hrs by annexin V/FITC-propidium iodide staining-based flow cytometric method (reference value: 95.4%). It is filed as functional. The note with it: read-out: Activity.
The subject of assay [23] is HeLa. The assay can be described thus: Cell cycle arrest in human HeLa cells assessed as accumulation at G2 phase at 30 uM after 48 hrs by propidium iodide staining-based flow cytometric analysis (reference value: 4.45%). It is filed as functional.
In assay [24] the test system is HeLa. The experiment in a line: Cell cycle arrest in human HeLa cells assessed as accumulation at S phase at 30 uM after 48 hrs by propidium iodide staining-based flow cytometric analysis (reference value: 29.20%). It is filed as functional.
Assay [25] deals with HeLa. The experiment in a line: Upregulation of Bak expression in human HeLa cells at 10 to 30 uM after 24 hrs by Western blot method. Format: functional, cell-based. For orientation: In western blotting, separated proteins are transferred to a membrane and probed.
For assay [26], the system named is HeLa. The assay can be described thus: Upregulation of Bim expression in human HeLa cells at 10 to 30 uM after 24 hrs by Western blot method. It is filed as functional, cell-based.
Assay [27] concerns HeLa. The assay can be described thus: Downregulation of Bcl-2 expression in human HeLa cells at 10 to 30 uM after 24 hrs by Western blot method. It is filed as functional, cell-based.
Assay [28] relates to HeLa. The assay can be described thus: Downregulation of Bcl-xL expression in human HeLa cells at 10 to 30 uM after 24 hrs by Western blot method. It is filed as functional, cell-based.
Assay [29] concerns HepG2. The experiment in a line: Cytotoxicity against human HepG2 cells assessed as decrease in cell viability by MTT assay. It is filed as functional, cell-based.
The test system of assay [30] is MCF7. The experiment in a line: Cytotoxicity against human MCF7 cells assessed as decrease in cell viability by MTT assay. It is filed as functional, cell-based.
Assay [31] relates to P388. The assay can be described thus: Cytotoxicity against mouse P388 cells assessed as growth inhibition. It is filed as functional, cell-based.

Active and inactive are the calls of the source. The calls are words filed in the database; no cut-off is given here. Some results are limits rather than exact numbers.

The IC50 is the point on the concentration scale where inhibition reaches its midpoint. In the case of `Cc1ccc(-c2oc3cc(O)ccc3c2-c2ccc(O)cc2O)cc1`, the IC50 in assay [1] amounted to 29.2 µM.

On to `COc1ccc(-c2c(-c3ccccc3)oc3cc(OC)ccc23)c(O)c1`, for which the IC50 in assay [1] was 28.9 µM.

For `Oc1ccc(-c2c(-c3cccnc3)oc3cc(O)ccc23)c(O)c1`, the half-inhibitory concentration (IC50) in [1] is 19.9 µM.

For `Oc1ccc(-c2c(-c3ccccc3Br)oc3cc(O)ccc23)c(O)c1`, the IC50 in assay [1] is greater than 100 µM.

For the molecule `Oc1ccc(-c2c(-c3ccc4ccccc4c3)oc3cc(O)ccc23)c(O)c1`, in assay [1], the IC50 turned out to be 21.2 µM.

Take `CC[C@@]1(O)C(=O)OCc2c1cc1n(c2=O)Cc2cc3cc(O)ccc3nc2-1` [HYDROXYCAMPTOTHECIN]: the IC50 in assay [1] came out at 10 µM.

For `COc1cccc(-c2c(-c3ccccc3)oc3c(OC)cccc23)c1O`, the half-maximal inhibitory concentration (IC50) in [1] is 57.8 µM.

Regarding `Oc1ccc(-c2c(-c3cccc(Br)c3)oc3cc(O)ccc23)c(O)c1`, in assay [1], the IC50 is 26.9 µM.

Turning to `Oc1ccc(-c2c(-c3ccccc3)oc3cc(O)ccc23)c(O)c1`, the IC50 in [1] was found to be 29.7 µM.

For the molecule `Oc1ccc(-c2c(-c3ccc(Cl)cc3)oc3cc(O)ccc23)c(O)c1`, the IC50 in assay [1] came out at 32.7 µM.

Turning to `Oc1ccc(-c2oc3cc(O)ccc3c2-c2ccc(O)cc2O)cc1`, the IC50 in [1] is 32 µM.

For the molecule `Oc1ccc(-c2c(-c3ccc(F)cc3)oc3cc(O)ccc23)c(O)c1`, in assay [1], the 50% inhibitory concentration (IC50) was found to be 28.3 µM.

For the molecule `Cc1cccc(-c2oc3cc(O)ccc3c2-c2ccc(O)cc2O)c1`, the IC50 in assay [1] came out at 13.4 µM. Moreover, the Activity in assay [2] is reported as 30%; in assay [3], 65%; in assay [4] it was 70.88%; in [5] it was 7.56%; in assay [6] it was 21.56%; in assay [7], 63.54%. In addition, the Activity turned out to be 6.31% in [8]; 30.15% in assay [9]; 61.08% in assay [10]; 8.05% in assay [11]; 7.26% in [12]; 1.97% in [13]. Besides, the Activity is listed as 8.57% in assay [15]; 18.9% in assay [16]; 3.08% in [17]; 10.3% in [19]; 36.2% in assay [20]; 11.5% in assay [21]. The Activity stood at 7.1% in assay [23] and 31.82% in assay [24]. For the same molecule, the viability at 10 µM in [14] worked out at 82.7%. In addition, in assay [18], the viability at 20 µM was found to be 69.5%. Moreover, the viability at 30 µM in assay [22] stood at 42.1%. The result in [25], in assay [26], in assay [27] and in assay [28] was Active.

`COc1ccc(/C=C/c2cc(OC)c3c(-c4cc(OC)cc(OC)c4)c(-c4ccc(OC)cc4)oc3c2)cc1`: the IC50 worked out at 0.24 µM in assay [29] and 0.85 µM in assay [30].

On to `Cc1ccccc1-c1oc2cc(O)ccc2c1-c1ccc(O)cc1O`, for which the IC50 in assay [1] was 47.5 µM.

For the molecule `COc1ccc(-c2oc3cc(O)ccc3c2-c2ccc(O)cc2O)cc1`, the IC50 in assay [1] is 13.7 µM.

Take `COc1cccc(-c2oc3cc(O)ccc3c2-c2ccc(O)cc2O)c1`: the IC50 in assay [1] turned out to be 29.9 µM.

As for `Oc1ccc(-c2c(-c3ccc(Br)cc3)oc3cc(O)ccc23)c(O)c1`, in assay [1], the IC50 stood at 36.7 µM.

For the molecule `O=C1c2c(O)cc(O)cc2-c2c(-c3ccc(O)cc3)oc3cc(O)cc1c23`, the IC50 in assay [31] is 13.2 µM.
